Experimental data published in US20240116946A1 (Gilead Sciences, Inc., priority 2022, published 2024).
Like-named read-outs stand apart in the source and are kept apart here.

What was measured:
SARS-CoV-2-NLuc = assay: microbe, parasite or virus in culture; type: cell-based, SARS Coronavirus 2
[1] = target: recombinant SARS-CoV-2 Main protease (Mpro) (Severe acute respiratory syndrome coronavirus 2 (2019-nCoV) (SARS-CoV-2), UniProt P0DTD1); assay: Cov Mpro Biochemical IC50 Assay
[2] = recombinant SARS-CoV-2 Mpro 7.5 nM, fluorogenic peptide substrate 40 μM, read-out: MPro IC50
[3] = Severe acute respiratory syndrome coronavirus, 48 h; read-out: MPro EC50
[4] = Severe acute respiratory syndrome coronavirus, 48 h, read-out: MPro EC50
[5] = recombinant SARS-CoV-2 Mpro, fluorogenic peptide substrate, read-out: MPro IC50

SMILES: COc1cc(-c2cc3c(s2)c(=O)n(-c2cncc4ccccc24)c(=O)n3CCC#N)c(C#N)cc1F (single isomer, unassigned) [Example 968, 2-(1-(2-cyanoethyl)-3-(isoquinolin-4-yl)-2,4-dioxo-1,2,3,4-tetrahydrothieno[3,2-d]pyrimidin-6-yl)-5-fluoro-4-methoxybenzonitrile]
- EC50 (SARS-CoV-2-NLuc; read-out: MPro EC50): 96 nM
- IC50 [1, 2]: 89.1 nM

SMILES: COc1ccc(Cl)c(-c2cc3[nH]c(=O)n(-c4cncc5ccc(N6CCOCC6=O)cc45)c(=O)c3s2)c1 [Example 573, 6-(2-chloro-5-methoxyphenyl)-3-(6-(3-oxomorpholino)isoquinolin-4-yl)thieno[3,2-d]pyrimidine-2,4(1H,3H)-dione]
- EC50 (SARS-CoV-2-NLuc; [3]): 20.1 nM
- IC50 [1, 2]: 3.26 nM

SMILES: N#CCn1c(=O)n(-c2cncc3ccccc23)c(=O)c2sc(-c3cc(F)ccc3Cl)cc21 [Example 728]
- EC50 (SARS-CoV-2-NLuc; [4]): 4.34 nM
- IC50 [1, 2]: 2.7 nM

SMILES: COc1cc(-c2cc3c(s2)c(=O)n(-c2cncc4nn(C)c(C)c24)c(=O)n3CCC#N)c(Cl)cc1F [Example 926, 3-(6-(2-chloro-4-fluoro-5-methoxyphenyl)-3-(2,3-dimethyl-2H-pyrazolo[3,4-c]pyridin-4-yl)-2,4-dioxo-3,4-dihydrothieno[3,2-d]pyrimidin-1(2H)-yl)propanenitrile]
- EC50 (SARS-CoV-2-NLuc; [4]): 8.89 nM
- IC50 [1, 2]: 6.74 nM

SMILES: Cn1ncc2cncc(-n3c(=O)c4sc(-c5cc(F)c(F)cc5C#N)cc4n(CCC#N)c3=O)c21 [Example 794]
- EC50 (SARS-CoV-2-NLuc; [4]): > 1000 nM
- IC50 [1, 2]: 31.5 nM

SMILES: COc1cc(-c2cc3[nH]c(=O)n(-c4cncc5cnn(C)c45)c(=O)c3s2)c(C#N)cc1F [Example 751, 5-fluoro-4-methoxy-2-[3-(1-methylpyrazolo[4,3-c]pyridin-7-yl)-2,4-dioxo-1H-thieno[3,2-d]pyrimidin-6-yl]benzonitrile]
- EC50 (SARS-CoV-2-NLuc; [4]): 216 nM
- IC50 [1, 2]: 11.1 nM

SMILES: Cn1cc(-c2cccc(Cl)c2-c2ccc3c(=O)n(-c4cncc5ccccc45)c(=O)[nH]c3c2)nn1 [Example 310]
- EC50 (SARS-CoV-2-NLuc; [4]): 140 nM
- IC50 [1, 5]: 55.4 nM

SMILES: COc1cc(-c2cc3c(s2)c(=O)n(-c2cncc4c2c(C)nn4CC(F)(F)F)c(=O)n3CCC#N)c(Cl)cc1F [Example 919]
- EC50 (SARS-CoV-2-NLuc; [4]): 366 nM
- IC50 [1, 2]: 926 nM

SMILES: COc1ccc(Cl)c(-c2cc3[nH]c(=O)n(-c4cncc5ccc(O)cc45)c(=O)c3s2)c1 [Example 581]
- EC50 (SARS-CoV-2-NLuc; [4]): 151 nM
- IC50 [1, 2]: < 2.54 nM

SMILES: COc1cc2c(=O)n(-c3cncc4ccccc34)c(=O)[nH]c2cc1-c1c(Cl)cccc1OC [Example 77]
- EC50 (SARS-CoV-2-NLuc; [3]): 115 nM
- IC50 [1, 5]: 131 nM

SMILES: Cn1ncc2cncc(-n3c(=O)c4sc(-c5ccccc5C#N)cc4n(CCC#N)c3=O)c21 (single isomer, unassigned) [Example 961, 2-(1-(2-cyanoethyl)-3-(1-methyl-1H-pyrazolo[4,3-c]pyridin-7-yl)-2,4-dioxo-1,2,3,4-tetrahydrothieno[3,2-d]pyrimidin-6-yl)benzonitrile]
- EC50 (SARS-CoV-2-NLuc; read-out: MPro EC50): 19.6 nM
- IC50 [1, 2]: 6.18 nM

SMILES: COc1cc(-c2cc3c(s2)c(=O)n(-c2cncc4nc(C5CCC5)n(C)c24)c(=O)n3CCC#N)c(Cl)cc1F [Example 755]
- EC50 (SARS-CoV-2-NLuc; [4]): 243 nM
- IC50 [1, 2]: 33.3 nM

SMILES: N#CCCn1c(=O)n(-c2cncc3ccccc23)c(=O)c2sc(-c3ccccc3C#N)cc21 (single isomer, unassigned) [Example 963, 2-(1-(2-cyanoethyl)-3-(isoquinolin-4-yl)-2,4-dioxo-1,2,3,4-tetrahydrothieno[3,2-d]pyrimidin-6-yl)benzonitrile]
- EC50 (SARS-CoV-2-NLuc; read-out: MPro EC50): 14.6 nM
- IC50 [1, 2]: 7.92 nM

SMILES: O=c1[nH]c2cc(-c3ccccc3)ncc2c(=O)n1-c1cncc2ccccc12 [Example 164]
- EC50 (SARS-CoV-2-NLuc; [4]): 12500 nM
- IC50 [1, 5]: 7880 nM

SMILES: COc1cc(-c2cc3c(s2)c(=O)n(-c2cncc(F)c2C)c(=O)n3CCC#N)c(C#N)cc1F [Example 849]
- EC50 (SARS-CoV-2-NLuc; [4]): 30.4 nM
- IC50 [1, 2]: 12.8 nM

SMILES: COc1cc(-c2cc3[nH]c(=O)n(-c4cncc5ccc(C(C)(C)O)cc45)c(=O)c3s2)c(Cl)cc1F [Example 551, 6-(2-chloro-4-fluoro-5-methoxyphenyl)-3-(6-(2-hydroxypropan-2-yl)isoquinolin-4-yl)thieno[3,2-d]pyrimidine-2,4(1H,3H)-dione]
- EC50 (SARS-CoV-2-NLuc; [4]): 23.6 nM
- IC50 [1, 2]: 5.36 nM

SMILES: O=C1C[C@@H](Nc2ccc3cncc(-n4c(=O)[nH]c5cc(-c6ccccc6Cl)sc5c4=O)c3c2)CN1 [Example 405]
- EC50 (SARS-CoV-2-NLuc; [4]): 2930 nM
- IC50 [1, 2]: 12 nM

SMILES: N#Cc1cc(F)ccc1-c1cc2[nH]c(=O)n(-c3cncc4ccccc34)c(=O)c2s1 [Example 534]
- EC50 (SARS-CoV-2-NLuc; [4]): 80.5 nM
- IC50 [1, 2]: 30.6 nM

SMILES: Cc1c(Cl)cncc1-n1c(=O)c2sc(-c3ccc(F)cc3Cl)cc2n(CCC#N)c1=O [Example 807]
- EC50 (SARS-CoV-2-NLuc; [4]): 35 nM
- IC50 [1, 2]: 20.6 nM

SMILES: COc1cc(-c2nc3c(s2)c(=O)n(-c2cncc4ccccc24)c(=O)n3CCC#N)c(Cl)cc1F [Example 903]
- EC50 (SARS-CoV-2-NLuc; [4]): 13.1 nM
- IC50 [1, 2]: 8.52 nM

SMILES: CCc1ccncc1-n1c(=O)[nH]c2cc(-c3ccccc3Cl)ccc2c1=O [Example 124]
- EC50 (SARS-CoV-2-NLuc; [4]): 2220 nM
- IC50 [1, 5]: 948 nM

SMILES: COc1ccc(C#N)c(-c2cc3[nH]c(=O)n(-c4cncc5cnn(C)c45)c(=O)c3s2)c1 [Example 506]
- EC50 (SARS-CoV-2-NLuc; [4]): 99.5 nM
- IC50 [1, 2]: 19.6 nM

SMILES: COc1ccc(Cl)c(-c2cc3[nH]c(=O)n(-c4cncc5scc(C)c45)c(=O)c3s2)c1 (single isomer, unassigned) [Example 1052, 6-(2-chloro-5-methoxyphenyl)-3-(3-methylthieno[2,3-c]pyridin-4-yl)thieno[3,2-d]pyrimidine-2,4(1H,3H)-dione]
- EC50 (SARS-CoV-2-NLuc; read-out: MPro EC50): 2.66 nM
- IC50 [1, 2]: 3.67 nM

SMILES: N#CC1(Cn2c(=O)n(-c3cncc4cccnc34)c(=O)c3sc(-c4ccccc4Cl)cc32)CC1 [Example 711]
- EC50 (SARS-CoV-2-NLuc; [4]): 1.71 nM
- IC50 [1, 2]: 4.41 nM

SMILES: COc1cc(-c2cc3c(s2)c(=O)n(-c2cncc4ccc(C#N)cc24)c(=O)n3CCC#N)c(Cl)cc1F [Example 1062]
- EC50 (SARS-CoV-2-NLuc; [4]): 5.42 nM
- IC50 [1, 2]: 4.87 nM

SMILES: COc1cc(-c2cc3c(s2)c(=O)n(-c2cncc4nc(C)n(C)c24)c(=O)n3CCC#N)c(Cl)cc1F [Example 842, 3-(6-(2-chloro-4-fluoro-5-methoxyphenyl)-3-(1,2-dimethyl-1H-imidazo[4,5-c]pyridin-7-yl)-2,4-dioxo-3,4-dihydrothieno[3,2-d]pyrimidin-1(2H)-yl)propanenitrile]
- EC50 (SARS-CoV-2-NLuc; [4]): 27.5 nM
- IC50 [1, 2]: 6.66 nM

SMILES: Cn1ncc2cncc(-n3c(=O)c4sc(-c5ccc(C(F)(F)F)cc5C#N)cc4n(CCC#N)c3=O)c21 [Example 775]
- EC50 (SARS-CoV-2-NLuc; [4]): > 1000 nM
- IC50 [1, 2]: 600 nM

SMILES: COc1ccc(Cl)c(-c2ccc3c(=O)n(-c4cncc5ccccc45)c(=S)[nH]c3c2)c1 [Example 240]
- EC50 (SARS-CoV-2-NLuc; [3]): 520 nM
- IC50 ([1]; MPro IC50, recombinant SARS-CoV-2 Mpro, fluorogenic peptide substrate): 1660 nM

SMILES: C#Cc1ccccc1-c1ccc2c(=O)n(-c3cncc4ccccc34)c(=O)[nH]c2c1 [Example 28]
- EC50 (SARS-CoV-2-NLuc; [4]): 536 nM
- IC50 [1, 5]: 340 nM

SMILES: COc1cc(-c2cc3c(s2)c(=O)n(-c2cncc4cnn(C5CC5)c24)c(=O)n3CCC#N)c(Cl)cc1F [Example 998]
- EC50 (SARS-CoV-2-NLuc; [4]): 6.42 nM
- IC50 [1, 2]: 8.93 nM

SMILES: COc1ccc(Cl)c(-c2cc3[nH]c(=O)n(-c4cncc5ccc(N6CCn7c(nnc7C(F)(F)F)C6)cc45)c(=O)c3s2)c1 [Example 603]
- EC50 (SARS-CoV-2-NLuc; [4]): 14.6 nM
- IC50 [1, 2]: 2.75 nM

SMILES: COc1cc(-c2cc3[nH]c(=O)n(-c4cncc5sc(C#N)c(C)c45)c(=O)c3s2)c(Cl)cc1F [Example 1051]
- EC50 (SARS-CoV-2-NLuc; [4]): 5.16 nM
- IC50 [1, 2]: 6.82 nM

SMILES: N#CCCn1c(=O)n(-c2cncc3ccccc23)c(=O)c2sc(-c3ccc(F)cc3Cl)cc21 [Example 827]
- EC50 (SARS-CoV-2-NLuc; [4]): 10.4 nM
- IC50 [1, 2]: 10.2 nM

SMILES: COc1cnc(C#N)c(-c2cc3c(s2)c(=O)n(-c2cncc4ccccc24)c(=O)n3CCC#N)c1 (single isomer, unassigned) [Example 1092, 3-(1-(2-cyanoethyl)-3-(isoquinolin-4-yl)-2,4-dioxo-1,2,3,4-tetrahydrothieno[3,2-d]pyrimidin-6-yl)-5-methoxypicolinonitrile]
- EC50 (SARS-CoV-2-NLuc; read-out: MPro EC50): 11.2 nM
- IC50 [1, 2]: 5.1 nM

SMILES: CCn1cc(-c2cccc(Cl)c2-c2ccc3c(=O)n(-c4cncc5ccccc45)c(=O)[nH]c3c2)c(C)n1 [Example 275]
- EC50 (SARS-CoV-2-NLuc; [4]): 17.9 nM
- IC50 [1, 5]: 23.3 nM

SMILES: Cn1ncc2cncc(-n3c(=O)[nH]c4cc(-c5c(Cl)cccc5-c5cncc(C#N)c5)sc4c3=O)c21 [Example 677]
- EC50 (SARS-CoV-2-NLuc; [3]): 45 nM
- IC50 [1, 2]: 7.27 nM

SMILES: COc1ccc(C)c(-c2ccc3c(=O)n(-c4cncc5ccccc45)c(=O)[nH]c3c2)c1 [Example 301]
- EC50 (SARS-CoV-2-NLuc; [4]): 173 nM
- IC50 [1, 5]: 259 nM

SMILES: COc1ccc(C#N)c(-c2cc3[nH]c(=O)n(-c4cncc5cccnc45)c(=O)c3s2)c1 [Example 460, 2-(3-(1,6-naphthyridin-8-yl)-2,4-dioxo-1,2,3,4-tetrahydrothieno[3,2-d]pyrimidin-6-yl)-4-methoxybenzonitrile]
- EC50 (SARS-CoV-2-NLuc; [4]): 60.7 nM
- IC50 [1, 2]: 9.01 nM

SMILES: COc1cnc(Cl)c(-c2cc3c(s2)c(=O)n(-c2cncc4nnn(C)c24)c(=O)n3CCC#N)c1 [Example 884]
- EC50 (SARS-CoV-2-NLuc; [4]): 126 nM
- IC50 [1, 2]: 31.4 nM
